From patent US20190282541A1, “USE OF ERIBULIN AND HISTONE DEACETYLASE INHIBITORS IN THE TREATMENT OF CANCER” (EISAI R&D MANAGEMENT CO., LTD., priority 2016, published 2019)
Like-named read-outs stand apart in the source and are kept apart here.

What was measured:
Type in all cases: cell-based
[1] = tested on: BT-549 human breast cancer cells; assay: Single agent growth inhibition (Cell Titer-Glo proliferation); conditions: 72 hours
Method: (§1) The growth inhibitory activities of two test agents, eribulin and entinostat, were determined alone and in combination against 12 human breast cancer cell lines (Table 1). The human breast tumor cell lines were selected based on their profile characteristics of being either human epidermal growth factor receptor 2 negative (Her2') and estrogen receptor positive (ER^+) or Triple Negative (Her2^-, ER^-, and progesterone receptor negative [PR^-]). Activities of individual agents were determined by curve-fitting the concentration of agent that inhibits cell growth by 50% compared to the control cells in a four parameter-logistic equation, whereas agent combinations were determined by the method of (Chou and […] Advances in Enzyme Regulation 22:27-55, 1984), and analyzed with CalcuSyn software. Fa, the fraction of affected drug targets at a given drug concentration, was calculated from the fractional decrease. Each agent was tested individually to determine the median-effect dose, Dm, (or EC50, the 50% effect concentration). For combination treatments, drug solutions were mixed at ratios providing approximately equipotent concentrations based upon relative Dm, and this mixture was serially diluted to yield test concentrations. The Combination Index (CI), computed from ratios of the concentrations of mixed and unmixed drugs that produce the same Fa, indicates whether inhibition is additive, synergistic, or antagonistic. In whole-cell assays, inhibitor interactions are complex (mixed), rather than mutually exclusive (purely competitive) or nonexclusive (purely non-competitive), CI values for both types of inhibition are reported to define the range of possible values. […] Finally, in Experiment 3, we determined the antiproliferative activity of the study agents in combination against the panel of human tumor cell lines. […] We further analyzed quadruplicate samples over a seven point dose response range. MCF-7 human breast cancer cells were cultured in RPMI 1640 medium supplemented with 10% fetal bovine serum (FBS), 2 mM glutamine, 10 mM 4-(2-hydroxyethyl)-1-piperazineethanesulfonic acid (HEPES), 0.075% sodium bicarbonate, 100 units/mL sodium penicillin G, 100 μg/mL streptomycin sulfate and 25 μg/mL gentamicin. T-47D human breast cancer cells were cultured in RPMI 1640 medium supplemented with 10% FES. 4.5 g/L glucose. 2 mM glutamine. 10 mM HEPES, 0.2 units/mL Insulin, 1 mM sodium pyruvate, 100 units/mL sodium penicillin G, 100 streptomycin sulfate and 25 μg/mL gentamicin, ZR-75-1 human breast cancer cells were cultured in RPMI 1640 medium supplemented with 10% FBS, 4.5 g/L. glucose, 2 mM glutamine, 10 […] HEPES, 1 mM sodium pyruvate, 100 units/mL sodium penicillin G, 100 μg/mL streptomycin sulfate and 25 μg/mL gentamicin. […] HCC70 human breast cancer cells were cultured in RPMI1640 medium supplemented with 10% FBS, 2 mM glutamine, 4.5 g/L glucose, 10 mM HEPES, 0.075% sodium bicarbonate, 1 mM sodium pyruvate, 100 units/mL sodium penicillin 0, 100 μg/mL streptomycin sulfate and 25 μg/mL gentamicin. […] The tumor cells were cultured in tissue culture flasks in a humidified incubator at 37° C., in an atmosphere of 5% CO2 and 95% air; except for the MDA-MB-134-VI, MDA-MB-175-VII, MDA-MB-415, and MDA-MB-436, these cells were cultured at 37° C. in 100% air and no additional CO2. The selected human tumor cells were seeded at 2,000-5,000 cells/well in a clear polystyrene 96-well microculture plate (Corning® Costar® 96-well flat bottom plate, Cat. No. 3997) in a total volume of 90 μL per well. After 24 hours of incubation in a humidified incubator at 37° C. with 5% CO2 and 95% air (except for the MDA-MB-134-VI, MDA-MB-175-VII, MDA-MB-415, and MDA-MB-436, these cells were cultured at 37° C. in 100% air, no additional CO2), 10 μL of the 10× drug prep was added. […]

[2] = tested on: HCC1806 human breast cancer cells; assay: as above; conditions: 72 hours
Method: as §1

[3] = tested on: HCC70 human breast cancer cells; assay: as above; conditions: 72 hours
Method: as §1

[4] = tested on: Hs578t human breast cancer cells; assay: as above; conditions: Hs-578T, 72 hours
Method: as §1

[5] = tested on: MCF-7 human breast cancer cells; assay: as above; conditions: 72 hours
Method: as §1

[6] = tested on: MDA-MB-134VI human breast cancer cells; assay: as above; conditions: 144 hours
Method: as §1

[7] = tested on: MDA-MB-175VII human breast cancer cells; assay: as above; conditions: 144 hours
Method: as §1

[8] = tested on: MDA-MB-231 human breast cancer cells; assay: as above; conditions: 72 hours
Method: as §1

[9] = tested on: MDA-MB-415 human breast cancer cells; assay: as above; conditions: 144 hours
Method: as §1

[10] = tested on: MDA-MB-436 human adenocarcinoma derived cancer cells; assay: as above; conditions: 144 hours
Method: as §1

[11] = tested on: T-47D human breast cancer cells; assay: as above; conditions: T47D, 72 hours
Method: as §1

[12] = tested on: panel of 12 human breast cancer cell lines; assay: Single agent inhibitory activity across the cell line panel; conditions: all 12 cell lines, Experiments 1 and 2
Method: The growth inhibitory activities of two test agents, eribulin and entinostat, were determined alone and in combination against 12 human breast cancer cell lines (Table 1). The human breast tumor cell lines were selected based on their profile characteristics of being either human epidermal growth factor receptor 2 negative (Her2') and estrogen receptor positive (ER^+) or Triple Negative (Her2^-, ER^-, and progesterone receptor negative [PR^-]). Activities of individual agents were determined by curve-fitting the concentration of agent that inhibits cell growth by 50% compared to the control cells in a four parameter-logistic equation, whereas agent combinations were determined by the method of (Chou and […] Advances in Enzyme Regulation 22:27-55, 1984), and analyzed with CalcuSyn software. Fa, the fraction of affected drug targets at a given drug concentration, was calculated from the fractional decrease. […] Finally, in Experiment 3, we determined the antiproliferative activity of the study agents in combination against the panel of human tumor cell lines. […] We further analyzed quadruplicate samples over a seven point dose response range. […] The medium/Cell Titer-Glo® reagent was transferred to a white polystyrene 96-well microculture plate (Corning® Costar® 96-well flat bottom plate, Cat. No. 3917) before determining luminescence on the Tecan GENios microplate. […]

[13] = tested on: ZR-75-1 human breast cancer cells; assay: Single agent growth inhibition (Cell Titer-Glo proliferation); conditions: Experiment 2, narrow concentration range, 72 hours
Method: as §1

[14] = Experiment 1, wide concentration range, read-out: Wide range IC50
[15] = Experiment 2, narrow concentration range, read-out: Narrow range IC50
[16] = MCF7, Experiment 1, wide concentration range, read-out: Wide range IC50
[17] = MCF7, Experiment 2, narrow concentration range, read-out: Narrow range IC50

SMILES	IC50 [1, 14]	IC50 [1, 15]	IC50 [2, 14]	IC50 [2, 15]	IC50 [3, 14]	IC50 [4, 14]	IC50 [4, 15]	IC50 [5, 16]	IC50 [5, 17]	IC50 [6, 14]	IC50 [6, 15]	IC50 [7, 14]	IC50 [7, 15]	IC50 [8, 14]	IC50 [8, 15]	IC50 [9, 14]	IC50 [9, 15]	IC50 [10, 14]	IC50 [10, 15]	IC50 [11, 15]	further results
C=C1C[C@@H]2CC[C@@]34C[C@H]5O[C@H]6[C@@H](O3)[C@H]3O[C@H](CC[C@@H]3O[C@H]6[C@H]5O4)CC(=O)C[C@@H]3[C@@H](OC)[C@@H](C[C@H](O)CN)O[C@H]3C[C@H]3O[C@@H](CC[C@@H]1O2)C[C@@H](C)C3=C [eribulin]	0.23 nM	0.39 nM	0.25 nM	0.3 nM	0.35 nM	0.39 nM	0.67 nM	0.22 nM	0.37 nM	0.62 nM	0.88 nM	0.55 nM	1.09 nM	0.26 nM	0.52 nM	0.64 nM	0.57 nM	2.82 nM	3.2 nM	1.15 nM	Relative potency of single agents [12]: more potent than entinostat in all cell lines
Nc1ccccc1NC(=O)c1ccc(CNC(=O)OCc2cccnc2)cc1 [entinostat, pyridin-3-yl methyl N-[[4-[(2-aminophenyl)carbarnoyl]phenyl]methyl carbamate]	1250 nM	1500 nM	550 nM	1220 nM	1450 nM	1100 nM	1400 nM	540 nM	570 nM	390 nM	800 nM	210 nM	1170 nM	610 nM	940 nM	92.1 nM	140 nM	810 nM	1370 nM	1780 nM	IC50 [3, 15]: 1110 nM; IC50 [11, 14]: 1600 nM; IC50 [13]: 4950 nM
